What was measured:
[1] = in vivo; cited from earlier work
[2] = Additional benefits observed in people taking betaine; type: in vivo, human
Text: Betaine is known to improve cardiovascular health, and can benefit people with fatty deposits in the liver. […] After only a few weeks of taking the betaine, cholesterol levels are reduced and the ability to lose weight is improved.

[3] = after only a few weeks of taking the betaine

C[N+](C)(C)CC(=O)[O-] [betaine, trimethylglycine]
serious side effects [1]: no known serious side effects
tendency to be light headed on getting up after prolonged squatting or kneeling ([2]; a few doses of betaine at about one and a half to about three grams per day, especially older people): considerably lessened
ability to lose weight [2, 3]: improved
cholesterol levels [2, 3]: reduced

Source: patent US20190314318A1, “SUPPRESSION AND PREVENTION OF TUMORS AND TREATMENT OF VIRUSES” (priority 2018, published 2019)
